Measurements published in patent US20040057958A1, “Immunogenicity-enhancing carriers and compositions thereof and methods of using the same” (priority 2002, published 2004).

System: mice
Assay: ELISA of antisera from mice immunized with CPT1PaTXL
Format: in vivo
Conditions: ten mice inoculated SC/IP with CPT1PaTXL (first two inoculations +PTA); any bleed, including the terminal bleed; TXL coupled to BSA for ELISA
Method: The hybridoma project began with a series of sequential inoculations by subcutaneous (SC) or interperitoneal (IP) injections of 100 μg of CPT1PaTXL formulated in PBS. In addition to the CPT1PaTXL, the first two inoculations also contained […] toxin as adjuvant (PTA). All subsequent inoculations were without PTA and had various amounts of CPT1PaTXL according to the following approximate schedule:
Ten mice were used in the immunization protocol. At each scheduled test bleed, 100 μl of blood was obtained from the tail, and an ELISA was conducted to evaluate reactivity against either Polyglutamate (PG) alone, Paclitaxel (TXL) or CT-2103. Because of the poor solubility of TXL in aqueous solutions, TXL was coupled to Bovine Serum Albumin, fraction V (Sigma Biochemicals, St. Louis Mo.) for ELISA testing. ELISA assays are performed as described in detail in Harlow, E. and Lane, D., Antibodies, A Laboratory Manual, Cold Spring Harbor Laboratory Press, 1988, pp. 564-569. Reactivity against the P. falciparum peptide epitope was analyzed following the terminal bleed.

Structure (SMILES): CC(=O)O[C@H]1C(=O)[C@@]2(C)[C@H]([C@H](OC(=O)c3ccccc3)[C@]3(O)C[C@H](OC(=O)[C@H](O)[C@@H](NC(=O)c4ccccc4)c4ccccc4)C(C)=C1C3(C)C)[C@]1(OC(C)=O)CO[C@@H]1C[C@@H]2O [TXL, Paclitaxel]
- antibody reactivity (anti-PG, anti-TXL, anti-CT-2103) in ELISA of test bleeds: no detectable
